The text below walks through data of ChEMBL document CHEMBL1147574, “Synthesis of a novel peptidic photoaffinity probe for the PTP-1B enzyme” (Bioorg Med Chem Lett, 2004).

The structures appear in SMILES notation. pIC50: −log10 of the molar value. Some results are limits rather than exact numbers.

Test [1] can be described thus: Inhibitory activity of compound against phosphotyrosine phosphatase-1B.
Test [2] is described as follows: Percent adduct formed by co-valent binding to the enzyme was assessed by irradiating a solution of the photoprobe and the PTP1B enzyme with a 40W lamp.

A word on the pIC50: it is the negative decadic logarithm of the IC50, by convention in mol/L. As for `NC(=O)[C@H](Cc1ccc(C(F)(F)P(=O)(O)O)cc1)NC(=O)[C@H](Cc1ccc(C(F)(F)P(=O)(O)O)cc1)NCc1cc(Br)cc(C2(C(F)(F)F)N=N2)c1`, the pIC50 in test [1] is 5.77. For `NC(=O)[C@H](Cc1ccc(C(F)(F)P(=O)(O)O)c(Br)c1)NC(=O)[C@H](Cc1ccc(C(F)(F)P(=O)(O)O)c(Br)c1)NC(=O)c1cc(I)cc(C2(C(F)(F)F)N=N2)c1`, in test [2], the Adduct formation came out at 8%. In test [1], this molecule showed a negative-log IC50 (pIC50) of 8.40.

With `NC(=O)[C@H](Cc1ccc(C(F)(F)P(=O)(O)O)cc1)NC(=O)c1cc(Br)cc(C2(C(F)(F)F)N=N2)c1`, in test [1], the negative-log IC50 (pIC50) was 5.02. `NC(=O)[C@H](Cc1ccc(C(F)(F)P(=O)(O)O)cc1)NC(=O)[C@H](Cc1ccc(C(F)(F)P(=O)(O)O)cc1)NC(=O)c1cc(Br)cc(C2(C(F)(F)F)N=N2)c1` had a pIC50 in test [1] of 7.92. `NC(=O)[C@H](Cc1ccc(C(F)(F)P(=O)(O)O)cc1)NC(=O)[C@H](Cc1ccc(C(F)(F)P(=O)(O)O)cc1)NC(=O)c1cc(I)cc(C2(C(F)(F)F)N=N2)c1` yielded an Adduct formation in test [2] of 8%. In test [1], this molecule showed a negative-log IC50 (pIC50) of 8.05. Turning to `NC(=O)[C@H](Cc1ccc(C(F)(F)P(=O)(O)O)cc1)NC(=O)[C@H](Cc1ccc(C(F)(F)P(=O)(O)O)cc1)NC(=O)[C@H](CCC(=O)O)NCc1cc(Br)cc(C2(C(F)(F)F)N=N2)c1`, the Adduct formation in test [2] amounted to 5%. The negative logarithm of the IC50 (pIC50) in test [1] was 8.52. In test [2], `NC(=O)[C@H](Cc1ccc(C(F)(F)P(=O)(O)O)cc1)NC(=O)[C@H](Cc1cc(Br)cc(C2(C(F)(F)F)N=N2)c1)NC(=O)c1cc(Br)cc(C2(C(F)(F)F)N=N2)c1` returned an Adduct formation of less than 5%. This molecule gave a pIC50 in test [1] of 7.82. In turn, `NC(=O)[C@H](Cc1ccc(C(F)(F)P(=O)(O)O)c(Br)c1)NC(=O)[C@H](Cc1ccc(C(F)(F)P(=O)(O)O)c(Br)c1)NC(=O)c1cc(Br)cc(C2(C(F)(F)F)N=N2)c1` had an Adduct formation in test [2] of 6%. The molecule also had a pIC50 in test [1] of 9.52.

In turn, `NC(=O)[C@H](Cc1ccc(C(F)(F)P(=O)(O)O)cc1)NC(=O)[C@H](Cc1ccc(C(F)(F)P(=O)(O)O)cc1)NC(=O)[C@H](CCC(=O)O)NC(=O)c1cc(Br)cc(C2(C(F)(F)F)N=N2)c1` returned an Adduct formation in test [2] of 8%. In test [1], this molecule showed a pIC50 of 7.85.
